# Test results taken from patent publication US6177426A, “Morpholino-N-ethyl ester prodrugs of indole sPLA2 inhibitors” (Eli Lilly and Company, priority 2000, dated 2001).
# How the values were obtained:
# [1] = Rat plasma pharmacokinetics study, oral bioavailability; type: in vivo, Rat (Fischer 344); settings: compared to other ester prodrugs
# Description: The bioavailability of the compound of the invention, ((3-(2-Amino-1,2-dioxoethyl)-1-((1,1'-biphenyl)-3-ylmethyl)-2-methyl-1H-indol-4-yl)oxy)acetic acid morpholino-N-ethyl ester, was determined using a Rat Study Protocol Plasma
# The purpose of this assay was to evaluate and compare the oral delivery for selected sPLA2 inhibitors.
# The amount of sPLA2 inhibitor was corrected for free acid equivalents.
# Suspension of sPLA2 inhibitor in 10% Acacia, prepared just prior to dose administration
# Dose: 10 mg/kg (of the parent acid)
# Blood samples (0.8 ml) were obtained at the following times: 0.5, 1, 2, 4, 8 and 24 hours (2 rats/timepoint)
# Plasma was assayed by HPLC to measure concentrations of the different sPLA2 inhibitors (measured as free acids). Cmax (maximal plasma concentrations), and AUC values were determined from the mean plasma concentration-time profiles.
# [2] = target: recombinant human secreted phospholipase A2; settings: data from U.S. Pat. No. 5,654,326, cited from earlier work
# [3] = target: recombinant human secreted phospholipase A2; settings: guinea pig lung tissue; sPLA2 10 ug/ml; data from U.S. Pat. No. 5,654,326; read-out: Tissue test secreted PLA2 Apparent KB; cited from earlier work
compound,measurement,setting,value
"Cc1c(C(=O)C(N)=O)c2c(OCC(=O)OCCN3CCOCC3)cccc2n1Cc1cccc(-c2ccccc2)c1 [Compound of formula (I), ((3-(2-amino-1,2-dioxoethyl)-1-((1,1'-biphenyl)-3-ylmethyl)-2-methyl-1H-indol-4-yl)oxy)acetic acid morpholino-N-ethyl ester]",oral bioavailability compared to other esters (in words),[1]; listed as morpholino-N-ethyl ester,unexpectedly more bioavailable than other esters
Cc1c(C(=O)C(N)=O)c2c(OCC(=O)OCCN3CCOCC3)cccc2n1Cc1cccc(-c2ccccc2)c1 [formula (I)],oral bioavailability compared to other esters (in words),[1],highly bioavailable upon oral administration compared to other common ester type prodrugs
Cc1c(C(=O)C(N)=O)c2c(OCC(=O)O)cccc2n1Cc1cccc(-c2ccccc2)c1 [formula (II)],IC50,"[2]; chromogenic assay, 3-4 tests, read-out: Inhibition of human secreted PLA2 IC50 ± mean deviation (3-4 tests)",4.33 ± 2.31 nM
same,inhibiting sPLA2 (conclusion in words),[2]; conclusion of Assay 1,highly active in inhibiting sPLA2
same,Kb,[3],57 ± 11 nM
